The values below are quoted from earlier work in patent US20220351806A1, “Biomarker Panels for Guiding Dysregulated Host Response Therapy” (Endpoint Health Inc., priority 2019, published 2022).

The test system of series [1] is shock events induced by endotoxin. To be noted: rats, preventive administration, injected endotoxin; cited from earlier work.
Series [2] concerns acid-induced lung injury. The following applies: rats, cited from earlier work.
For series [3], the system named is oncologic and lymphopenic patients. The following applies: over 390 oncologic and lymphopenic patients; cited from earlier work.
In series [4] the test system is septic animals. The following applies: exogenous TFPI expressed in mammalian cells and/or Escherichia coli; cited from earlier work.

On to `CC1C(=O)OC2C(O)C34C5CC(C(C)(C)C)C36C(OC(=O)C6O)OC4(C(=O)O5)C12O` (stereo not drawn) [BN 52021], for which, in series [1], the “release of thromboxane and prostaglandin factor 1-α (PGF1-α)” value is on record as “reduced”.

Consider `CCOC(=O)[C@H](Cc1ccccc1)NC(=O)c1cc(Cl)c(OCCN2CCN(C)CC2)c(Cl)c1O.Cl.Cl` [JTE 607], for which, in series [2] (acid-induced lung injury), the “production of inflammatory cytokines (tumor necrosis factor-alpha, interleukin-6, cytokine-induced neutrophil chemoattractant)” value is on record as “inhibit the production”. For the same molecule, the acid-induced lung injury result in series [2] is listed as “attenuate acid-”.

With CYT-107, in series [3], the immunity entry was “counts, and improved”; the safety entry is recorded as “safe, invariably”.

Turning to tifacogin, in series [4], the “outcome in septic animals” value was “coli improved”.
